# Measured values: paper PMC9332833 (Cancers, 2022)
# Where two headings read alike, the source gives them in different places.
# How the values were obtained:
# K562 cells [1] = test: MTT viability test, K562; assay type: cell-based; settings: Homo sapiens; for viability at 0.005 µM: K562, 48 h, 0,005 µM; for IC50: K562
# Procedure: CML cell line K562 CCL-243™ (BCR-ABL^+) was purchased from the ATCC® (Manassas, VA, USA). Cells were grown in RPMI 1640 medium containing HEPES (Biowest, Nuaillé, France) with 2 mM GlutaMAX (Gibco, Grand Island, NY, USA), supplemented with 10% fetal bovine serum (Sigma-Aldrich, St. Louis, MO, USA) and […] (Gibco, Grand Island, NY, USA) and 0.1 µM Vincristine (for K562-MDR1).
# (§1) Cells were seeded in 96-well plates; after 24 h, medium with the appropriate drug concentration was added to each well. After 48 h, Tetrazolium Bromide (Sigma-Aldrich, St. Louis, MO, USA) was added to each well for 2–3 h. After that, cells were lysed and formazan crystals were dissolved. Absorbance was read using an iMark Microplate absorbance reader (Bio-Rad, Hercules, CA, USA). Results were calculated relative to cells treated with DMSO only. […]
# (§2) Cells were seeded in 96-well plates at 7 × 10^3 cells/well in 50 µL of complete medium (for K562 or K562-MDR1) or at 50 × 10^3 cells/well in 50 µL of complete medium (CD34+ cells). After 24 hours, 50 µL of medium with the appropriate drug concentration was added to each well. The final DMSO concentration per well was 1% for K562 and K562-MDR1 and 0.1% for CD34+ cells. After 48 hours, 20 µL of Tetrazolium Bromide (Sigma-Aldrich, St. Louis, MO, USA) at a concentration of 5 mg/mL was added to each well. Cells were incubated for 2-3 hours in a cell culture incubator, and then 10% SDS with 1% HCl was added to each well to lyse the cells and dissolve the formazan crystals. Plates were […]
# K562-MDR1 cells [2] = test: MTT viability test, K562-MDR1; assay type: cell-based, human; settings: for viability at 0.005 µM: 48 h, 0,005 µM; for IC50: MTT; for Cross-resistance of K562-MDR1 cells: MTT assay
# Excerpt: The K562-MDR1 cell line was developed using increasing concentrations of the commonly used antimitotic drug vincristine on a polyclonal K562 population, as described earlier. […] The DMSO concentration in the culture was 0.1%. The vincristine dose was doubled every 2–3 weeks (at least twice for each experiment) after the cells reached confluence. Cell’s viability was above 90%, as confirmed by Muse Cell Analyzer (Merck Millipore, Burlington, MA, USA). The final concentration of vincristine reached was 0.1 μM. The increase in the K562-MDR1 population was confirmed by flow cytometry and PCR.
# as §1, §2
# K562 cells [3] = test: K562 xenogeneic mouse model, tumor growth; assay type: in vivo, NSG mice
# Procedure: Statistical analysis was performed using GraphPad Prism version 9.1.0. All in vitro experiments were performed in at least triplicate biological replicates and statistical results are expressed as mean ± standard deviation (SD). Statistical data of animal experiments are expressed as mean ± standard error of the mean (SEM). For experiments involving patients, the normality of the distribution was checked using the Shapiro–Wilk test and the statistical analysis was performed using one-way ANOVA with Dunnett’s post-test * p < 0.05, ** […], *** 0.001 > p > 0.0001, **** p < 0.0001.
# Table S3. […] Control and
# IP, intraperitoneal administration; O, orally
# [4] = Blood morphology in K562 xenograft mice; settings: 500 mg/kg IP daily 14 days, N=4
# Procedure: (§3) Eight-week-old female NOD.Cg-Prkdcscid Il2rgtm1Wjl/SzJ NSG mice (Jackson Laboratory, Bar Harbor, ME, USA) were injected subcutaneously into the dorsal fold with 1 × 10^6 K562 cells of the human chronic myeloid leukemia (CML) line in a final volume of 100 µL (0.5% of the mouse weight). On day 3 after cell administration, mice were randomly assigned to each group, and on days 4–17 of the experiment, the selected tested compounds and control solutions were administered intraperitoneally or orally. During the experiment, subcutaneous tumors and body weight were measured daily. Tumor growth during the experiment was measured with an electronic display caliper. The theoretical tumor volume [mm], was calculated according to the formula (a^2 × b) * 0.5, where a is the shorter tumor axis [mm] and b is the longer tumor axis [mm]. On day 26, the experiment was terminated: blood was collected and analyzed for cellular morphology and standard biochemistry metabolites. Tumors were weighed.
# (§4) Control and treated mice were grouped according to the tested compounds and the scheme of their administrations (doses, administration frequencies, routes of administration) in the CML xenogeneic model obtained by subcutaneous transplantation of 1 × 10^6 cells of the human CML blast line K562 into mice NOD.Cg-Prkdcscid Il2rgtm1Wjl/SzJ (NSG).
# (§5) Hydroxyurea K562 500 mg/kg, IP Aqua pro 1 x daily 8
# [5] = Body and organ weights in K562 xenograft mice
# Procedure: as §3, §4, §5
# K562-MDR1 cells [6] = test: P-glycoprotein (CD243)/propidium iodide flow cytometry; assay type: cell-based, human; settings: 1 µM, 24 h; for Proportion of K562-MDR1 cells, mean value: DMSO control 33.6%; for viability at 1 µM: Homo sapiens, DMSO control 89.2%, read-out: Living cells (viability), mean value
# Procedure: BK124.1 or DMSO were added to cells and after 24 h incubation cells were harvested and stained with FITC Mouse Anti-Human P-glycoprotein (CD243) clone 17F9 (BD, Franklin Lakes, NJ, USA) or an appropriate isotype control. Propidium iodide was added to […]. Cells were analyzed on a BD FACSCalibur flow cytometer using CellQuest software (BD, Franklin Lakes, NJ, USA). […]
# Flow cytometry analysis of CD243 (P-glycoprotein)
# Cells were seeded at a concentration of 1-2 × 10^5 cells/mL in a 6- or 24-well plate. After 24 hours of pre-incubation, DMSO or test compounds in DMSO were added. The cells were then incubated for 24 hours. After this time, cells were harvested, washed with 0.5% BSA in PBS (Mg2+ and Ca2+ free), and labeled for 30 minutes on ice with FITC Mouse Anti-Human P-glycoprotein (CD243) clone 17F9 (BD, Franklin Lakes, NJ, USA) or an appropriate isotype control. Following incubation with the antibody, cells were stained with propidium iodide, washed with PBS and a nalyzed on a BD FACSCalibur flow cytometer using CellQuest software (BD, Franklin Lakes, NJ, USA). […]
# [7] = 48 h, mean ± SD, read-out: Viability in relation to control
# [8] = Homo sapiens, 48 h, 0,05 µM, 48 h, mean ± SD, read-out: Viability in relation to control
# [9] = Homo sapiens, 48 h, mean ± SD, read-out: Viability in relation to control
# [10] = Homo sapiens, 48 h, 5 µM, 48 h, mean ± SD, read-out: Viability in relation to control
# [11] = mean ± SD, standard range 0.0-99.0
# [12] = 500 mg/kg IP daily 14 days, mean ± SD, N=4
structure (smiles),measurement,setting,value
COc1cccc2c1C(=O)c1c(O)c3c(c(O)c1C2=O)C[C@@](O)(C(=O)CO)C[C@@H]3O[C@H]1C[C@H](N)[C@H](O)[C@H](C)O1 [doxorubicin],viability at 0.005 µM,K562 cells [1]; [7],97.7%
same,IC50,"K562 cells [1]; MTT, 48 h",3.7 µM
same,viability at 5 µM,K562-MDR1 cells [2]; [8],101%
same,viability at 0.005 µM,K562-MDR1 cells [2]; [9],99.4%
same,viability at 5 µM,K562-MDR1 cells [2]; [10],45.1%
same,IC50,"K562-MDR1 cells [2]; Homo sapiens, 48 h",7 µM
same,Cross-resistance of K562-MDR1 cells,K562-MDR1 cells [2],confirmed
"NC(=O)NO [hydroxyurea, reference compound]",Tumor weights,"K562 cells [3]; 500 mg/kg IP daily 14 days, mean ± SD, N=4, tumor growth control 9.2±2.1",1.8 ± 0.9 g
same,Tumor growth versus control groups,"K562 cells [3]; BK124.1 20 or 30 mg/kg IP, imatinib 100 mg/kg orally, hydroxyurea 500 mg/kg IP, 1 x daily",effectively inhibited
same,GRA,[4]; [11],26.0±7.6%
same,LYMP,[4]; [11],58.0±9.9%
same,MON,[4]; [11],16.0±3.8%
same,HGB,"[4]; mean ± SD, standard range 1.1-18",13.1 ± 0.8 g/dL
same,WBC,"[4]; mean ± SD, standard range 3.0-15",8.1±4.3 103/μL
same,MPV,"[4]; mean ± SD, standard range 4.6-7.3",3.6±4.3 μm3
same,RBC,"[4]; mean ± SD, standard range 5.0-12",6.9±0.4 106/μL
same,RDW,"[4]; mean ± SD, standard range 11.5-14.5",17.3±0.6%
same,MCH,"[4]; mean ± SD, standard range 12-24.5",18.9 ± 0.5 pg
same,MCHC,"[4]; mean ± SD, standard range 21.6-42",31.5 ± 0.3 g/dL
same,HCT,"[4]; mean ± SD, standard range 36-52",41.5±2.4%
same,PLT,"[4]; mean, standard range 140-600",1575.5 103/μL
same,Brain weight,[5]; [12],0.46 ± 0.02 g
same,Heart weight,[5]; [12],0.11 ± 0.03 g
same,Kidneys weight,[5]; [12],0.27 ± 0.04 g
same,Liver weight,[5]; [12],1.16 ± 0.13 g
same,Lung weight,[5]; [12],0.25 ± 0.08 g
same,Splean weight,[5]; [12],0.05 ± 0.01 g
same,Total body weight course,"[5]; doses as in Table S3, control mice gained mass in the last 5 days",began to lose large quantities of weight
CC(=O)O[C@H]1C(=O)[C@@]2(C)[C@H]([C@H](OC(=O)c3ccccc3)[C@]3(O)C[C@H](OC(=O)[C@H](O)[C@@H](NC(=O)c4ccccc4)c4ccccc4)C(C)=C1C3(C)C)[C@]1(OC(C)=O)CO[C@@H]1C[C@@H]2O [paclitaxel],viability at 0.005 µM,K562 cells [1]; [7],32.6%
same,viability at 5 µM,K562-MDR1 cells [2]; [8],89.9%
same,viability at 5 µM,"K562-MDR1 cells [2]; Homo sapiens, 48 h, 0,5 µM, 48 h, mean ± SD, read-out: Viability in relation to control",48.4%
same,viability at 0.005 µM,K562-MDR1 cells [2]; [9],100%
same,viability at 5 µM,K562-MDR1 cells [2]; [10],44.3%
same,IC50,"K562-MDR1 cells [2]; Homo sapiens, 48 h",7 µM
same,Cross-resistance of K562-MDR1 cells,K562-MDR1 cells [2],confirmed
same,"Proportion of K562-MDR1 cells, mean value",K562-MDR1 cells [6],33.7%
same,viability at 1 µM,K562-MDR1 cells [6],77.2%
CC[C@]1(O)C[C@H]2CN(CCc3c([nH]c4ccccc34)[C@@](C(=O)OC)(c3cc4c(cc3OC)N(C=O)[C@H]3[C@@](O)(C(=O)OC)[C@H](OC(C)=O)[C@]5(CC)C=CCN6CC[C@]43[C@@H]65)C2)C1 [vincristine],viability at 0.001 µM,"K562 cells [1]; K562, 48 h, 0,001 µM, 48 h, mean ± SD, read-out: Viability in relation to control",76.6%
same,viability at 0.005 µM,K562 cells [1]; [7],32.6%
same,IC50,K562 cells [1]; MTT assay,0.003 µM
same,viability at 1 µM,"K562-MDR1 cells [2]; Homo sapiens, 48 h, 0,1 µM, 48 h, mean ± SD, read-out: Viability in relation to control",94.3%
same,viability at 0.001 µM,"K562-MDR1 cells [2]; Homo sapiens, 48 h, 0,001 µM, 48 h, mean ± SD, read-out: Viability in relation to control",106%
same,viability at 1 µM,"K562-MDR1 cells [2]; Homo sapiens, 48 h, 1 µM, 48 h, mean ± SD, read-out: Viability in relation to control",32.4%
same,viability at 0.005 µM,K562-MDR1 cells [2]; [9],111%
same,IC50,"K562-MDR1 cells [2]; Homo sapiens, 48 h",0.512 µM
same,"Proportion of K562-MDR1 cells, mean value",K562-MDR1 cells [6],37.0%
same,viability at 1 µM,K562-MDR1 cells [6],79.7%
